Laboratory results: PubChem BioAssay AID248 (DTP/NCI, 2004)
“And” between values parts separate entries of the source, which are not always exact repeats. Identical values can stand only once. Toxic doses and inconclusive results are not listed. Cut-off read from the data, not from the text of the source: active = T/C of 150% or more; inactive = T/C below 125%.

Tested on: L1210 leukemia ip in BDF1 mice, survival T/C
Test: NCI In Vivo Anticancer Drug Screen. Data for tumor model L1210 Leukemia (intraperitoneal) in B6D2F1 (BDF1) mice
Settings: endpoint: mean survival time, higher = longer survival
Outline: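 Read-out is survival time, reported as the treated-group measurement over the vehicle-control measurement.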

[1] = dose: 12.5 mg/kg/injection, schedule: Q01DX009 (ip), vehicle: saline with Tween-80
[2] = dose: 50.0 mg/kg/injection, schedule: Q01DX009 (ip), vehicle: saline with Tween-80
[3] = dose: 100.0 mg/kg/injection, schedule: Q01DX009 (ip), vehicle: saline with Tween-80
[4] = dose: 100.0 mg/kg/injection, schedule: Q01DX001 (ip), vehicle: carboxymethylcellulose (CMC)
[5] = dose: 200.0 mg/kg/injection, schedule: Q01DX001 (ip), vehicle: carboxymethylcellulose (CMC)
[6] = dose: 150.0 mg/kg/injection, schedule: Q01DX001 (ip), vehicle: saline
[7] = dose: 100.0 mg/kg/injection, schedule: Q01DX009 (ip), vehicle: Klucel (hydroxypropylcellulose) (HPC)
[8] = dose: 200.0 mg/kg/injection, schedule: Q04DX002 (ip), vehicle: Klucel (hydroxypropylcellulose) (HPC)
[9] = dose: 400.0 mg/kg/injection, schedule: Q04DX002 (ip), vehicle: Klucel (hydroxypropylcellulose) (HPC)
[10] = dose: 100.0 mg/kg/injection, schedule: Q04DX003 (ip), vehicle: saline
[11] = dose: 200.0 mg/kg/injection, schedule: Q04DX003 (ip), vehicle: saline
[12] = dose: 400.0 mg/kg/injection, schedule: Q04DX003 (ip), vehicle: saline
[13] = dose: 100.0 mg/kg/injection, schedule: Q01DX001 (ip), vehicle: saline
[14] = dose: 200.0 mg/kg/injection, schedule: Q01DX001 (ip), vehicle: saline
[15] = dose: 400.0 mg/kg/injection, schedule: Q01DX001 (ip), vehicle: saline
[16] = dose: 100.0 mg/kg/injection, schedule: Q04DX002 (ip), vehicle: Klucel (hydroxypropylcellulose) (HPC)
[17] = dose: 100.0 mg/kg/injection, schedule: Q01DX009 (ip), vehicle: saline
[18] = dose: 100.0 mg/kg/injection, schedule: Q04DX003 (ip), vehicle: saline with Tween-80
[19] = dose: 200.0 mg/kg/injection, schedule: Q04DX003 (ip), vehicle: saline with Tween-80
[20] = dose: 200.0 mg/kg/injection, schedule: Q01DX009 (ip), vehicle: saline with Tween-80
[21] = dose: 200.0 mg/kg/injection, schedule: Q01DX009 (ip), vehicle: Klucel (hydroxypropylcellulose) (HPC)

Measured: T/C

CCCCCCCCCCCCCCCCCCSC(=N)N
inactive: [1] 101 % of control | dose: 25.0 mg/kg/injection, schedule: Q01DX009 (ip), vehicle: saline with Tween-80 98 % of control | [2] 95 % of control | [3] 100 % of control

CCCCCC/C=N\N=C(N)N
inactive: dose: 15.0 mg/kg/injection, schedule: Q01DX Z (ip), vehicle: saline 97 % of control | dose: 30.0 mg/kg/injection, schedule: Q01DX Z (ip), vehicle: saline 97 % of control | dose: 60.0 mg/kg/injection, schedule: Q01DX Z (ip), vehicle: saline 102 % of control | dose: 60.0 mg/kg/injection, schedule: Q01DX Z (oral), vehicle: saline 100 % of control | dose: 120.0 mg/kg/injection, schedule: Q01DX Z (ip), vehicle: saline 88 % of control | dose: 120.0 mg/kg/injection, schedule: Q01DX Z (oral), vehicle: saline 98 % of control | dose: 240.0 mg/kg/injection, schedule: Q01DX Z (oral), vehicle: saline 91 % of control | dose: 480.0 mg/kg/injection, schedule: Q01DX Z (oral), vehicle: saline 98 % of control

Nc1cc2c(cc1Cl)-c1ccccc1/C2=N\O
inactive: [4] 110 % of control | [5] 98 % of control | dose: 400.0 mg/kg/injection, schedule: Q01DX001 (ip), vehicle: carboxymethylcellulose (CMC) 102 % of control

NC(=O)Cc1ccc(C(C2=C(O)c3ccccc3C(=O)C2=O)C2=C(O)c3ccccc3C(=O)C2=O)cc1
inactive: dose: 75.0 mg/kg/injection, schedule: Q01DX001 (ip), vehicle: saline 96 % of control | [6] 101 % of control | dose: 300.0 mg/kg/injection, schedule: Q01DX001 (ip), vehicle: saline 91 % of control

Nc1c(Cl)cc2c(c1Br)C(=O)c1ccccc1C2=O
inactive: dose: 100.0 mg/kg/injection, schedule: Q01DX001 (ip), vehicle: Klucel (hydroxypropylcellulose) (HPC) 117 % of control | dose: 400.0 mg/kg/injection, schedule: Q01DX001 (ip), vehicle: Klucel (hydroxypropylcellulose) (HPC) 90 % of control

CCCCCCCCCCCCCCCCCCNC(=O)Nc1nccs1
inactive: [7] 96 % of control | dose: 150.0 mg/kg/injection, schedule: Q01DX009 (ip), vehicle: Klucel (hydroxypropylcellulose) (HPC) 86 % of control | [8] 94 % of control | dose: 225.0 mg/kg/injection, schedule: Q01DX009 (ip), vehicle: Klucel (hydroxypropylcellulose) (HPC) 91 % of control | dose: 335.0 mg/kg/injection, schedule: Q01DX009 (ip), vehicle: Klucel (hydroxypropylcellulose) (HPC) 96 % of control | [9] 87 % of control

CC(=O)OCCN1CCC(n2ccc(=O)[nH]c2=O)C1=O (stereo unspecified)
inactive: [10] 104 % of control | [11] 104 % of control | [12] 106 % of control

C/C(=N/OC(=O)N(C)C)c1cccc(Cl)c1
inactive: dose: 44.0 mg/kg/injection, schedule: Q01DX001 (ip), vehicle: saline 95 % of control and 103 % of control | dose: 66.0 mg/kg/injection, schedule: Q01DX001 (ip), vehicle: saline 95 % of control and 101 % of control | [13] 94 % of control and 95 % of control | [6] 101 % of control and 112 % of control | [14] 97 % of control | [15] 103 % of control

Cc1ccc(CNC(=O)Nc2ccccc2Cl)c(C)c1
inactive: [16] 105 % of control | [8] 97 % of control | [9] 97 % of control

COc1ccc(NC(=O)c2cccc(C(=O)Nc3ccc(OC)cc3Cl)c2)c(Cl)c1
inactive: [16] 97 % of control | [8] 97 % of control | [9] 90 % of control

O=C(CCl)N1c2ccccc2Oc2cc3ccccc3cc21
inactive: [17] 100 % of control | [10] 95 % of control | dose: 200.0 mg/kg/injection, schedule: Q01DX009 (ip), vehicle: saline 90 % of control | [11] 101 % of control | dose: 400.0 mg/kg/injection, schedule: Q01DX009 (ip), vehicle: saline 92 % of control | [12] 92 % of control

CCCCCCCCCCCCCCCCCCNC(=O)C[N+](C)(C)Cc1ccccc1
inactive: dose: 3.13 mg/kg/injection, schedule: Q01DX009 (ip), vehicle: saline with Tween-80 93 % of control | dose: 6.25 mg/kg/injection, schedule: Q01DX009 (ip), vehicle: saline with Tween-80 98 % of control | [1] 89 % of control

CCN(CC)CC(=O)NCC(CCN1CCCCC1)(c1cccc2ccccc12)C(C)C (stereo unspecified)
inactive: dose: 25.0 mg/kg/injection, schedule: Q01DX009 (ip), vehicle: saline 101 % of control | dose: 50.0 mg/kg/injection, schedule: Q01DX009 (ip), vehicle: saline 115 % of control | [17] 112 % of control

c1cnc2c3c(ccc2c1)CN(C12CC4CC(CC(C4)C1)C2)CO3
inactive: [18] 102 % of control | [19] 107 % of control

COc1ccc(-n2cnc3c(=O)[nH]c(N)nc32)cc1NC(=O)Nc1cccc(S(=O)(=O)F)c1
inactive: dose: 50.0 mg/kg/injection, schedule: Q01DX001 (ip), vehicle: saline with Tween-80 95 % of control | dose: 100.0 mg/kg/injection, schedule: Q01DX001 (ip), vehicle: saline with Tween-80 92 % of control | dose: 200.0 mg/kg/injection, schedule: Q01DX001 (ip), vehicle: saline with Tween-80 100 % of control

Nc1[nH]nc2nccnc12
inactive: [3] 103 % of control | [18] 96 % of control | [20] 98 % of control | [19] 97 % of control | dose: 400.0 mg/kg/injection, schedule: Q01DX009 (ip), vehicle: saline with Tween-80 95 % of control | dose: 400.0 mg/kg/injection, schedule: Q04DX003 (ip), vehicle: saline with Tween-80 102 % of control

NC(=S)N/N=C/c1cc(Cl)cc(Cl)c1
inactive: dose: 100.0 mg/kg/injection, schedule: Q01DX001 (ip), vehicle: other 96 % of control | dose: 200.0 mg/kg/injection, schedule: Q01DX001 (ip), vehicle: other 102 % of control | dose: 400.0 mg/kg/injection, schedule: Q01DX001 (ip), vehicle: other 106 % of control

Cc1cc(C)n(C(N)=O)n1
inactive: [7] 109 % of control | dose: 100.0 mg/kg/injection, schedule: Q04DX003 (ip), vehicle: Klucel (hydroxypropylcellulose) (HPC) 105 % of control and 104 % of control | [21] 104 % of control | dose: 200.0 mg/kg/injection, schedule: Q04DX003 (ip), vehicle: Klucel (hydroxypropylcellulose) (HPC) 97 % of control and 102 % of control | dose: 400.0 mg/kg/injection, schedule: Q01DX009 (ip), vehicle: Klucel (hydroxypropylcellulose) (HPC) 110 % of control | dose: 400.0 mg/kg/injection, schedule: Q04DX003 (ip), vehicle: Klucel (hydroxypropylcellulose) (HPC) 101 % of control and 104 % of control

C=CCNC(=S)Nc1cccc(OC(=O)Nc2ccc(Cl)c(Cl)c2)c1
inactive: [7] 87 % of control | [21] 92 % of control

Cc1cccc(C(=O)C=C(C(F)(F)F)C(F)(F)F)c1
inactive: dose: 12.5 mg/kg/injection, schedule: Q04DX003 (ip), vehicle: saline with Tween-80 103 % of control | dose: 25.0 mg/kg/injection, schedule: Q04DX003 (ip), vehicle: saline with Tween-80 111 % of control | dose: 50.0 mg/kg/injection, schedule: Q04DX003 (ip), vehicle: saline with Tween-80 102 % of control and 118 % of control

O=C(CCCl)NCCCCCCNC(=O)CCCl
inactive: [13] 100 % of control | [14] 89 % of control | [15] 90 % of control

COc1ccc(Cc2nnc(Cc3ccc(OC)c(OC)c3)nn2)cc1OC
inactive: [2] 89 % of control | [3] 93 % of control | [20] 87 % of control

O=NN(C(=O)Nc1ccccc1)C1CCCCC1
inactive: dose: 18.0 mg/kg/injection, schedule: Q01DX001 (ip), vehicle: carboxymethylcellulose (CMC) 96 % of control | dose: 37.0 mg/kg/injection, schedule: Q01DX001 (ip), vehicle: carboxymethylcellulose (CMC) 94 % of control | dose: 75.0 mg/kg/injection, schedule: Q01DX001 (ip), vehicle: carboxymethylcellulose (CMC) 98 % of control | [4] 105 % of control | dose: 150.0 mg/kg/injection, schedule: Q01DX001 (ip), vehicle: carboxymethylcellulose (CMC) 102 % of control | [5] 104 % of control | dose: 250.0 mg/kg/injection, schedule: Q01DX001 (ip), vehicle: carboxymethylcellulose (CMC) 102 % of control
